Where “and” joins values, the source holds several entries; their conditions need not be identical. Equal values may be shown once.
Columns and labels:
[1] = tested on: ABCA1 mRNA in THP-1 cells; experiment: ABCA1 bDNA assay (ABCA1 mRNA induction); assay type: cell-based, human; conditions: for EC50 / Emax: Homo sapiens; for EC50: THP-1, THP-1 cells, ABCA1 mRNA induction; for ABCA1 (% max MX-6054) @3 μM / Emax / ABCA1 (% max MX-6054) @0.3 μM: THP-1 cells, relative to max of MX-6054; for Emax: concentration not given
Experimental: THP-1 cells, a human monocytic cell line, were obtained from ATCC and maintained in RPMI (Gibco) supplemented with 10% fetal bovine serum (Gibco), 2 mM L-glutamine and 1% antibiotic-antimycotic in 5% CO2 at 37° C. For ABCA1 mRNA induction assays, the cells were pelleted and resuspended in RPMI supplemented with 0.5% charcoal treated serum (Hyclone), 2 mM glutamine and 1% antibiotic-antimycotic. The cells were plated at a density of 40,000 cells/90 µl and incubated as above for at least 4 hours before the initiation of treatments. Compounds were prepared as 10 mM stocks in DMSO. For treatments, the compounds were diluted in medium and 10 µl of 10× stocks were added to the cells at a final concentration 0.1% DMSO. The cells were incubated for the desired amount of time (usually 18-24 hrs) and then lyzed with 50 µl of Quantigene HV bDNA lysis buffer which also contained the ABCA1 bDNA probes (probe sequences shown below): […]

[2] = molecular target: T1, RXR (Homo sapiens, UniProt P19793); experiment: RXR co-transfection assay (GAL4 fusion, luciferase reporter, HEK293 cells); assay type: cell-based; conditions: for RXR co-transfection (% of 2,4-thiazolidinedione, 5-[[3-(1-ethyl-1,2,3,4-tetrahydro-4,4,6-trimethyl-2-oxo-7-quinolinyl)-4-(trifluoro-methoxy)phenyl]methylene]-, (5Z)-): relative to the reference thiazolidinedione
T1 construct: expressed in transfected cells; host or cells: HEK293
T1 sequence (P19793 227-458 limits assumed): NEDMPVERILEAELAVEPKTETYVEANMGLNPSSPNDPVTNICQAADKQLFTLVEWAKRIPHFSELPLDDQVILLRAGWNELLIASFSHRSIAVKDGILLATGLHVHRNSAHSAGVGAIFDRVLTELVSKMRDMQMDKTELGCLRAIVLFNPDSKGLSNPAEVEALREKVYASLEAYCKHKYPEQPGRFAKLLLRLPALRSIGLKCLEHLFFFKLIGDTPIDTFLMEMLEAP
Experimental: The nucleic acid sequence from 676-1464 bp (accession number X52773) encoding the ligand binding domains was subcloned into the pM vector (BD Biosciences Clontech, Palo Alto, Calif.) and were fused with the DNA binding domain of yeast GAL4. HEK293 cells were cultured in DMEM/F12 medium supplemented with 10% FBS and 1% I-glutamine (growth medium). Cells were seeded at a density of 5-10×10^6 cells in 50 ml of growth medium and left overnight. The medium was removed and the cells were washed with 15 ml of OptiMEM serum free medium (Invitrogen Corp). The cells were transfected using OptiMEM serum free medium and DMRIE transfection reagent (Invitrogen Corp). Approximately 10-30 ng of DNA for the different receptors and 5-10 ng of the luciferase reporter (1:1 ratio for RAR and 4:1 ratio for RXR of receptor DNA:reporter DNA) were gently mixed with 51 µl of DMRIE reagent in a total volume of 17 ml of OptiMEM medium. Eighteen hours after transfection, the cells were washed once with growth medium and then incubated for 6 hrs in 30 ml of growth medium. The cells were then trypsinized, and reseeded at a density of 50,000 per well in 96 well plates and left overnight. The medium was replaced with 90 µl of medium containing DMEM/F12 supplemented with 0.5% charcoal-treated FBS (HyClone; Logan, Utah) and 1% glutamine. Compounds or vehicle were added in 10 µl of 10× concentration of compound or vehicle (0.1% dimethyl sulfoxide). The cells were treated for 16-18 hours, lysed and assayed for luciferase activity using the Steady Glo luciferase assay kit (Promega, Madison, Wis.).

EC50 [1] [nM] | EC50 [2] | RXR co-transfection (% of 2,4-thiazolidinedione, 5-[[3-(1-ethyl-1,2,3,4-tetrahydro-4,4,6-trimethyl-2-oxo-7-quinolinyl)-4-(trifluoro-methoxy)phenyl]methylene]-, (5Z)-) [2] | melting point [°C] | SMILES | ABCA1 (% max MX-6054) @3 μM [1] | Emax [1] [%] | ABCA1 (% max MX-6054) @0.3 μM [1]
200 | 12.8 nM and 35.8 nM |  |  | Cc1cc2c(cc1-c1cc(/C=C/C(=O)O)ccc1OC(F)(F)F)N(C)C(=O)CC2(C)C [Compound 3, 3-[3-(1,4,4,6-Tetramethyl-2-oxo-1,2,3,4-tetrahydro-quinolin-7-yl)-4-trifluoromethoxy-phenyl]-acrylic acid] | (56% @3 μM) |  | 
47 | 7.1 nM and 7.3 nM |  |  | CCN1C(=O)CC(C)(C)c2cc(C)c(-c3cc(CCC(=O)O)ccc3OC(F)(F)F)cc21 [Compound 26, 3-[3-(1-Ethyl-4,4,6-trimethyl-2-oxo-1,2,3,4-tetrahydro-quinolin-7-yl)-4-trifluoromethoxy-phenyl]-propionic acid] |  | 56.8 | 
347 | 46.3 nM and 29.1 nM |  |  | CCN1C(=O)CC(C)(C)c2cc(C)c(-c3cc(C(C)CC(=O)O)ccc3OC(F)(F)F)cc21 (stereo not shown) [Compound 30, 3-[3-(1-Ethyl-4,4,6-trimethyl-2-oxo-1,2,3,4-tetrahydro-quinolin-7-yl)-4-trifluoromethoxy-phenyl]-butyric acid] |  | 160 | 
369 | 59.6 nM and 12.6 nM and 37.2 nM |  |  | Cc1cc2c(cc1-c1cc(CCC(=O)O)ccc1OCC(F)(F)F)N(C(C)C)C(=O)CC2(C)C [Compound 31, 3-[3-(1-Isopropyl-4,4,6-trimethyl-2-oxo-1,2,3,4-tetrahydro-quinolin-7-yl)-4-(2,2,2-trifluoro-ethoxy)-phenyl]-propionic acid] |  | 45 | 
~3.6 | 1 nM and 2.5 nM |  |  | CCN1C(=O)CC(C)(C)c2cc(C)c(-c3cc(/C=C/C(=O)O)ccc3OC(F)(F)F)cc21 [Compound 2, 3-[3-(1-Ethyl-4,4,6-trimethyl-2-oxo-1,2,3,4-tetrahydro-quinolin-7-yl)-4-trifluoromethoxy-phenyl]-acrylic acid] |  | 81 | 
886 | ~50.9 nM and 27.2 nM |  |  | CCN1C(=O)CC(C)(C)c2cc(C)c(-c3cc(/C=C\C(=O)O)ccc3OC(F)(F)F)cc21 [Compound 58, 3-[3-(1-Ethyl-4,4,6-trimethyl-2-oxo-1,2,3,4-tetrahydro-quinolin-7-yl)-4-trifluoromethoxy-phenyl]-acrylic acid] |  | 75 | 
44 | 23.1 nM | (64%) |  | Cc1cc2c(cc1-c1cc(/C=C/C(=O)O)ccc1OCC(F)(F)F)N(C(C)C)C(=O)CC2(C)C [Compound 11, 3-[3-(1-Isopropyl-4,4,6-trimethyl-2-oxo-1,2,3,4-tetrahydro-quinolin-7-yl)-4-(2,2,2-trifluoro-ethoxy)-phenyl]-acrylic acid] |  |  | 
100 | 31.7 nM and 24.2 nM |  |  | CCN1C(=O)CC(C)(C)c2cc(C)c(-c3cc(/C=C(\C)C(=O)O)ccc3OC(F)(F)F)cc21 [Compound 9, 3-[3-(1-Ethyl-4,4,6-trimethyl-2-oxo-1,2,3,4-tetrahydro-quinolin-7-yl)-4-trifluoromethoxy-phenyl]-2-methyl-acrylic acid] |  |  | (39.9% @0.3 μM)
1520 | 251 nM and 164 nM |  |  | COc1ccc([C@@H]2C[C@H]2C(=O)O)cc1-c1cc2c(cc1C)C(C)(C)CC(=O)N2C(C)C (racemic) [Compound 44, (□)-2-[3-(1-Isopropyl-4,4,6-trimethyl-2-oxo-1,2,3,4-tetrahydro-quinolin-7-yl)-4-methoxy-phenyl]-cyclopropanecarboxylic acid] |  | 29 | 
1 | 3.4 nM | (80%) |  | Cc1cc2c(cc1-c1cc(CCC(=O)O)ccc1OC(F)(F)F)N(C(C)C)C(=O)CC2(C)C [Compound 28, 3-[3-(1-Isopropyl-4,4,6-trimethyl-2-oxo-1,2,3,4-tetrahydro-quinolin-7-yl)-4-trifluoromethoxy-phenyl]-propionic acid] |  | 59 | 
> 1000 | 2.9 nM and 7.1 nM |  |  | Cc1cc2c(cc1-c1cc([C@@H]3C[C@H]3C(=O)O)ccc1OC(F)(F)F)N(C(C)C)C(=O)CC2(C)C (racemic) [Compound 43, (□)-2-[3-(1-Isopropyl-4,4,6-trimethyl-2-oxo-1,2,3,4-tetrahydro-quinolin-7-yl)-4-trifluoromethoxy-phenyl]-cyclopropanecarboxylic acid] | (56% @3 μM) |  | 
10 | 16.3 nM | (97%) |  | Cc1cc2c(cc1-c1cc(/C=C/C(=O)O)ccc1OC(F)(F)F)N(C(C)C)C(=O)CC2(C)C [Compound 4, 3-[3-(1-Isopropyl-4,4,6-trimethyl-2-oxo-1,2,3,4-tetrahydro-quinolin-7-yl)-4-trifluoromethoxy-phenyl]-acrylic acid] |  |  | (70.3% @0.3 μM)
> 1400 | 144 nM | (108%) |  | Cc1cc2c(cc1-c1cc([C@@H]3C[C@H]3C(=O)O)ccc1OC(F)(F)F)N(C)C(=O)CC2(C)C (racemic) [Compound 42, (□)-2-[3-(1,4,4,6-Tetramethyl-2-oxo-1,2,3,4-tetrahydro-quinolin-7-yl)-4-trifluoromethoxy-phenyl]-cyclopropanecarboxylic acid] | (38% @3 μM) |  | 
510 | 71.2 nM and 62.7 nM and 36.7 nM | (85%) |  | COc1ccc(/C=C/C(=O)O)cc1-c1cc2c(cc1C)C(C)(C)CC(=O)N2C(C)C [Compound 12, 3-[3-(1-isopropyl-4,4,6-trimethyl-2-oxo-1,2,3,4-tetrahydro-quinolin-7-yl)-4-methoxy-phenyl]-acrylic acid] |  | 59 | 
 | 57.2 nM and 72.3 nM and 72.4 nM |  | 237 to 241 | CCN1C(=O)CC(C)(C)c2cc(C)c(-c3cc(/C=C/C(=O)O)ccc3OCC(F)(F)F)cc21 [Compound 1, 3-[3-(1-Ethyl-4,4,6-trimethyl-2-oxo-1,2,3,4-tetrahydro-quinolin-7-yl)-4-(2,2,2-trifluoro-ethoxy)-phenyl]-acrylic acid] |  | 60 | 

— US8236819B2, “Dihydro-[1H]-quinolin-2-one derivatives as RXR agonists for the treatment of dyslipidemia, hypercholesterolemia and diabetes” (Janssen Pharmaceutica N.V., priority 2005, dated 2012)
